Measurements published in patent publication US10138250B2, “Salt of pyrrolo[2,3-D]pyrimidine compound and novel polymorph of salt” (Crystal Pharmatech Co., Ltd., priority 2014, dated 2018).
Entries after “also recorded” stand apart in the source; their conditions may differ. Where two headings read alike, the source gives them in different places. One block for each compound: values may come before it.

How the values were obtained:
[1] = data in patent CN103201275A, cited from earlier work
[2] = Dynamic Vapor Sorption (DVS) hygroscopicity test with XRPD before and after; assay type: physicochemical; settings: for solid form change after hygroscopicity test (XRPD): XRPD before and after DVS 0-95% RH cycle; for Change after DVS: XRPD before and after DVS
Description: Dynamic Vapor Sorption (DVS) was measured via a SMS (Surface Measurement Systems) DVS Intrinsic. Typical Parameters for DVS test are listed below.
Gas and flow rate: N2, 200 mL/min
RH range: 0% RH to 95% RH
About 10.0 mg of hemi-succinate Form A was analyzed by DVS. The solid form was tested by XRPD before and after DVS.
About hygroscopicity characterization description and definition of hygroscopicity (Chinese Pharmacopoeia 2010 edition appendix XIXJ Drug hygroscopic test guidelines, test at 25° C.+/−1° C., 80% Relative Humidity)
About 10 mg of mono-succinate Form I of the present invention and non-hydrate form in patent CN103201275A were analyzed by DVS. The solid was tested by XRPD before and after hygroscopicity test.
The solid was tested by XRPD before and after hygroscopicity test.

[3] = Conversion of mono-succinate non-hydrate form to Form I by stirring in solvents at different temperatures; assay type: physicochemical; settings: cell continues 'Form I'
Description: About 10 mg of the non-hydrate form in patent CN103201275A as starting form was added in different solvents or mixed solvents (v/v), then stirred at 5-50° C. for about 48 hours. Finally, the starting form converted to Form I. Solvents and temperature used in this example is in the following in table 6.

[4] = Conversion of mono-succinate non-hydrate form to hemi-succinate Form A by stirring in solvents; assay type: physicochemical; settings: cell continues 'Form A'
Description: About 10 mg of the non-hydrate form in patent CN103201275A as starting form was added in different solvents or mixed solvents (v/v), then stirred at 5˜50° C. for about 48 hours.

[5] = Storage stability of crystalline salt forms (XRPD, HPLC purity); assay type: physicochemical; settings: 30 days; for Solid Form after storage: XRPD
Description: Two samples prepared by example 9, example 11 and example 13 were stored for 30 days under 25° C./60% RH and 40° C./75% RH.

SMILES: CN(C)C(=O)c1cc2cnc(Nc3ccc(N4CCNCC4)cn3)nc2n1C1CCCC1.CN(C)C(=O)c1cc2cnc(Nc3ccc(N4CCNCC4)cn3)nc2n1C1CCCC1.O=C(O)CCC(=O)O [hemi-succinate Form A]
weight gain at 80% RH ([2]; DVS, 25° C., 80% RH): 3.5%
hygroscopicity class ([2]; DVS, 80% RH): slightly hygroscopic (increase in mass is less than 2 percent and equal to or greater than 0.2 percent)

SMILES: CN(C)C(=O)c1cc2cnc(Nc3ccc(N4CCNCC4)cn3)nc2n1C1CCCC1.O=C(O)CCCCC(=O)O [adipate Form A]
Water absorption at 25° C./95% RH ([2]; DVS): 0.7%
Change after DVS [2]: did not change; also recorded: No change
HPLC Purity after storage ([5]; 25° C./60% RH): 99.1%
Solid Form after storage ([5]; 25° C./60% RH): No Change
HPLC Purity after storage ([5]; 40° C./75% RH): 98.9%
Solid Form after storage ([5]; 40° C./75% RH): No Change

More lines, main results first:

Water absorption at 25° C./95% RH ([2]; DVS): 18.3%
water adsorbed at 25° C./95% RH ([2]; DVS): 18.3%
solid form change after hygroscopicity test (XRPD) [2]: changed
Change after DVS ([2]; listed as non-hydrate form in patent CN103201275A): changed
Final Form ([3]; 5° C., Ethanol:n-heptane = 4:1, about 48 hours): mono-succinate
Final Form ([3]; 50° C., Acetonitrile:water = 20:1, about 48 hours): mono-succinate
Final Form ([3]; 50° C., THF:Methanol = 20:1, about 48 hours): mono-succinate
Final Form ([3]; RT, Ethanol:n-heptane = 4:1, about 48 hours): mono-succinate
Final Form ([4]; Acetone:water = 20:1, stirred at 5˜50° C. about 48 hours): hemi-succinate
Final Form ([4]; Ethanol:water = 20:1, stirred at 5˜50° C. about 48 hours): hemi-succinate
Final Form ([4]; Ethyl acetate, stirred at 5˜50° C. about 48 hours): hemi-succinate
Final Form ([4]; Tetrahydrofuran:water = 20:1, stirred at 5˜50° C. about 48 hours): hemi-succinate
SMILES: CN(C)C(=O)c1cc2cnc(Nc3ccc(N4CCNCC4)cn3)nc2n1C1CCCC1.O=C(O)CCC(=O)O
share of non-hydrate form converted to hydrate form ([1]; 25° C./80% RH): 0.52%
share of non-hydrate form converted to hydrate form ([1]; 25° C./90% RH): 7.35%
water adsorbed at 25° C./90% RH ([1]; 25° C./90% RH): 2.0%

Water absorption at 25° C./95% RH ([2]; DVS): 3.4%
Change after DVS [2]: did not change; also recorded: No change
HPLC Purity after storage ([5]; 25° C./60% RH): 99.3%
Solid Form after storage ([5]; 25° C./60% RH): No Change
HPLC Purity after storage ([5]; 40° C./75% RH): 99.3%
Solid Form after storage ([5]; 40° C./75% RH): No Change
SMILES: CN(C)C(=O)c1cc2cnc(Nc3ccc(N4CCNCC4)cn3)nc2n1C1CCCC1.O=C(O)/C=C\C(=O)O [maleate Form A]

water adsorbed at 25° C./90% RH ([2]; DVS, 25° C./90% RH): 1.7%
water adsorbed at 25° C./95% RH ([2]; DVS, listed as Form I): 4.0%
solid form change after hygroscopicity test (XRPD) ([2]; listed as Form I): did not change
SMILES: CN(C)C(=O)c1cc2cnc(Nc3ccc(N4CCNCC4)cn3)nc2n1C1CCCC1.O=C(O)CCC(=O)O [mono-succinate Form I]

Water absorption at 25° C./95% RH ([2]; DVS): 1.2%
Change after DVS [2]: did not change; also recorded: No change
HPLC Purity after storage ([5]; 25° C./60% RH): 99.7%
Solid Form after storage ([5]; 25° C./60% RH): No Change
HPLC Purity after storage ([5]; 40° C./75% RH): 99.6%
Solid Form after storage ([5]; 40° C./75% RH): No Change
SMILES: CN(C)C(=O)c1cc2cnc(Nc3ccc(N4CCNCC4)cn3)nc2n1C1CCCC1.O=C(O)CO [glycollate Form A]
